Data taken from ChEMBL document CHEMBL3885881, “DrugMatrix”.

Species on record: Rattus norvegicus
Test: DrugMatrix - Regimen: Daily Repeat
Assay type: toxicity, organism-based, Sprague-Dawley
Parameters: regimen Daily Repeat, gender Male, age 6-8 weeks
Conditions: in vivo, sc, route subcutaneous, […]
[1] = 0 mg/kg, 72 h, tissue Blood, dose level Control, time 3 day
[2] = 0 mg/kg, 72 h, tissue Plasma, dose level Control, time 3 day
[3] = 0 mg/kg, 120 h, tissue Blood, dose level Control, time 5 day
[4] = 0 mg/kg, 120 h, tissue Plasma, dose level Control, time 5 day
[5] = 10 mg/kg, 72 h, tissue Blood, dose level Low, time 3 day
[6] = 10 mg/kg, 72 h, tissue Plasma, dose level Low, time 3 day
[7] = 10 mg/kg, 120 h, tissue Blood, dose level Low, time 5 day

COBALT(II) ACETYLACETONATE
ABSOLUTE BASOPHIL [1]: 0 CELLS/uL
ABSOLUTE EOSINOPHIL [1]: 42.67 CELLS/uL
ABSOLUTE LYMPHOCYTE [1]: 10202 CELLS/uL
ABSOLUTE MONOCYTE [1]: 261.5 CELLS/uL
ABSOLUTE SEGMENTED NEUTROPHIL [1]: 2193.83 CELLS/uL
BASOPHIL [1]: 0%
EOSINOPHIL [1]: 0.33%
ERYTHROCYTE COUNT [1]: 5.63 x10E6/uL
HEMATOCRIT [1]: 35.35%
HEMOGLOBIN [1]: 13.07 G/DL
LEUKOCYTE COUNT [1]: 12.7 x10E3/uL
LYMPHOCYTE [1]: 81.17%
MEAN CORPUSCULAR HEMOGLOBIN [1]: 23.23 pg
MEAN CORPUSCULAR HEMOGLOBIN CONCENTRATION [1]: 36.97 G/DL
MONOCYTE [1]: 2%
NUCLEATED RED BLOOD CELLS [1]: 0 /100WBC
PLATELET COUNT [1]: 1180.33 x10E3/uL
ALANINE AMINOTRANSFERASE [2]: 48.67 u/L
ALKALINE PHOSPHATASE [2]: 360.67 u/L
ASPARTATE AMINOTRANSFERASE [2]: 85.5 u/L
BLOOD UREA NITROGEN [2]: 17.83 mg/dL
CARBON DIOXIDE [2]: 26.17 mmol/L
CHOLESTEROL [2]: 71 mg/dL
CREATINE PHOSPHOKINASE [2]: 515.17 u/L
CREATININE [2]: 0.22 mg/dL
GLUCOSE [2]: 192.5 mg/dL
LACTATE DEHYDROGENASE [2]: 214.67 u/L
LIPASE [2]: 8.5 u/L
PHOSPHORUS [2]: 12.95 mg/dL
POTASSIUM [2]: 6.39 MEQ/L
TOTAL BILIRUBIN [2]: 0.18 mg/dL
TOTAL PROTEIN [2]: 5.95 G/DL
ABSOLUTE BASOPHIL [3]: 0 CELLS/uL
ABSOLUTE EOSINOPHIL [3]: 188.5 CELLS/uL
ABSOLUTE LYMPHOCYTE [3]: 12360.83 CELLS/uL
ABSOLUTE MONOCYTE [3]: 64.33 CELLS/uL
ABSOLUTE SEGMENTED NEUTROPHIL [3]: 1986.33 CELLS/uL
BASOPHIL [3]: 0%
ERYTHROCYTE COUNT [3]: 5.52 x10E6/uL
HEMOGLOBIN [3]: 13.25 G/DL
LEUKOCYTE COUNT [3]: 14.6 x10E3/uL
LYMPHOCYTE [3]: 84.5%
MEAN CORPUSCULAR HEMOGLOBIN [3]: 24.05 pg
MEAN CORPUSCULAR HEMOGLOBIN CONCENTRATION [3]: 36.98 G/DL
MEAN CORPUSCULAR VOLUME [3]: 64.97 fL
MONOCYTE [3]: 0.5%
NEUTROPHIL [3]: 13.67%
NUCLEATED RED BLOOD CELLS [3]: 0 /100WBC
PLATELET COUNT [3]: 1297.83 x10E3/uL
ALANINE AMINOTRANSFERASE [4]: 51.17 u/L
ALKALINE PHOSPHATASE [4]: 393.17 u/L
ASPARTATE AMINOTRANSFERASE [4]: 111 u/L
BLOOD UREA NITROGEN [4]: 18.17 mg/dL
CARBON DIOXIDE [4]: 25 mmol/L
CHOLESTEROL [4]: 65.5 mg/dL
CREATINE PHOSPHOKINASE [4]: 911.5 u/L
CREATININE [4]: 0.21 mg/dL
GLUCOSE [4]: 183 mg/dL
LACTATE DEHYDROGENASE [4]: 189 u/L
LIPASE [4]: 8.33 u/L
PHOSPHORUS [4]: 12.78 mg/dL
POTASSIUM [4]: 6.05 MEQ/L
TOTAL BILIRUBIN [4]: 0.25 mg/dL
TOTAL PROTEIN [4]: 5.83 G/DL
URIC ACID [4]: 1.58 mg/dL
ABSOLUTE BASOPHIL [5]: 0 CELLS/uL
ABSOLUTE EOSINOPHIL [5]: 159.33 CELLS/uL
ABSOLUTE MONOCYTE [5]: 0 CELLS/uL
ABSOLUTE SEGMENTED NEUTROPHIL [5]: 812 CELLS/uL
BASOPHIL [5]: 0%
ERYTHROCYTE COUNT [5]: 5.08 x10E6/uL
HEMATOCRIT [5]: 32.57%
HEMOGLOBIN [5]: 12.17 G/DL
LEUKOCYTE COUNT [5]: 12.37 x10E3/uL
LYMPHOCYTE [5]: 92%
MEAN CORPUSCULAR HEMOGLOBIN [5]: 23.97 pg
MEAN CORPUSCULAR HEMOGLOBIN CONCENTRATION [5]: 37.37 G/DL
MONOCYTE [5]: 0%
NEUTROPHIL [5]: 6.67%
NUCLEATED RED BLOOD CELLS [5]: 0 /100WBC
PLATELET COUNT [5]: 1184.33 x10E3/uL
ALANINE AMINOTRANSFERASE [6]: 47.67 u/L
ALKALINE PHOSPHATASE [6]: 375.67 u/L
ASPARTATE AMINOTRANSFERASE [6]: 80 u/L
CARBON DIOXIDE [6]: 27 mmol/L
CHOLESTEROL [6]: 76 mg/dL
CREATINE PHOSPHOKINASE [6]: 254.67 u/L
CREATININE [6]: 0.19 mg/dL
GLUCOSE [6]: 171.67 mg/dL
LACTATE DEHYDROGENASE [6]: 104.33 u/L
LIPASE [6]: 8.33 u/L
PHOSPHORUS [6]: 11.6 mg/dL
TOTAL BILIRUBIN [6]: 0.13 mg/dL
TOTAL PROTEIN [6]: 5.73 G/DL
ABSOLUTE BASOPHIL [7]: 0 CELLS/uL
ABSOLUTE EOSINOPHIL [7]: 119 CELLS/uL
